From publication PMC6121439 (International Journal of Molecular Sciences, 2018)
No end group written: not given here.

Assays:
[1] = system: E. coli genes DnaK, ompC, sbmA; assay: Bacterial gene expression by RT-qPCR; assay type: cell-based, Escherichia coli; conditions: 0.1 µM, 30 min, RT-qPCR normalized to GAPDH
Experimental: (§1) The bacterial gene expression of proteins implicated in stress pathways and bacterial resistance response was evaluated following incubation with sub-lethal concentrations of the peptides. The following genes were selected: DnaK gene encoding for a chaperone, ompC gene encoding for a protein porin; sbmA encoding for an integral inner membrane protein that participates in an ABC transporter, parE encoding for a DNA topoisomerase IV and MprF for a lysyl transferase that ensures the synthesis of lysylphosphatidylglycerol (LPG). Total bacterial RNA was extracted using the mirVAna™ Isolation Kit, which integrates an organic extraction and solid-phase extraction to obtain high yields of ultra-pure, high quality RNA. […] Ampicillin was used at the same concentration as a positive control. After incubation cells were sedimented and resuspended in lysis buffer. RNA isolation was done according to manufacturer’s instructions. The amount of RNA extracted was quantified using Quantus™ Fluorometer (Promega). […] Complementary DNA (cDNA) synthesis is the first step of the two-step quantitative reverse transcriptase Polymerase Chain Reaction (RT-qPCR). cDNA was generated by the enzyme reverse transcriptase (RT). An aliquot of 1000 ng of total RNA was used to synthesize cDNA according to the manufacture instruction of iScript™ cDNA Synthesis Kit.
Gene expression of Escherichia coli and Staphylococcus aureus after peptide incubation was determined by Real Time Quantitative Polymerase Chain Reaction (RT-qPCR). The amount of amplified product was measured at each PCR cycle by using fluorescent probes and reading the signal emitted from the dyes while performing the thermal cycling. 1 μL of cDNA (5 ng) was mixed with 2 μL of RNase free water, 5 μL of iTaq Universal Master SYBR green Supermix, 1 μL of each primer of interest (500 nM), for a total volume of 10 μL per reaction. The genes studied in E. coli cells correspond to DnaK, ompC, SbmA and 16S MprF, parE for S. aureus. GAPDH was used as housekeeping for date normalization in the qPCR assays. Gene expression level was analyzed using a comparative quantification method ΔCq. This method assesses the fold change compared to a calibrator sample (control or group of reference). Counts for genes of interest were adjusted in relation to a reference (housekeeper) gene GAPDH. Reactions were subjected to 60 °C for 1 min and 95 °C for 10 min, followed by 40 cycles of 95 °C for 15 s and 60 °C for 1 min. Each sample was analyzed in triplicate. Data analysis was performed using Bio-Rad CFX Manager. The figure of gene level expression was designed by R project.

E. coli cells [2] = assay: FACS internalization of FITC-labeled peptides; assay type: cell-based, Escherichia coli; conditions: FITC-labeled peptide, sublethal concentration (0.5 µM), 10 min
Experimental: (§2) We performed FACS analysis in order to analyze the internalization of the FITC labeled peptides into E. coli and S. aureus cells. […] After corroborating the internalization of the peptides, the labeled peptide distribution was evaluated by FACS. Live/dead cell population was analyzed by monitoring the influx of propidium iodide (PI) at 10 min and 4 h of incubation.
(§3) Bacterial cell overnight culture was inoculated in a fresh LB to reach logarithmic phase OD600 of 0.2. A 500 µL aliquot of the bacterial suspension was incubated with 0.5 µM of each peptide for 10 min. After incubation and subsequently washes with 1× PBS at least thrice to remove presence of FITC-labeled peptide in the medium, 20,000 cells were subjected to FACS analysis using a FACSCalibur cytometer (BD Biosciences, Franklin Lakes, NJ, USA). The peptide bacterial uptake was assayed using 0.10 µM and 0.5 µM of each peptide at the first 10 min and after 4 h of peptide incubation.
(§4) (1 picture or pasted object on this page, not shown here)

[3] = Liposome leakage, ANTS/DPX; conditions: DOPC/DOPG (3:2) LUVs 30 µM, 37 °C, 20 mM NaCl, 10 mM Tris/HCl pH 7.5
[4] = system: P. aeruginosa (M18C1) clinical isolate; assay: Bacterial viability by ATP quantification (BacTiter-Glo); assay type: cell-based, Pseudomonas aeruginosa; conditions: ATP luminescence, 4 h at 37 °C, peptide up to 100 µM
Experimental: (§5) Minimum Bactericidal Concentrations (MBC100) were determined by CFU counting following plating of bacterial culture onto Petri dishes after four hours of incubation with serial peptide concentrations. The ED50 was calculated by ATP quantification using the BacTiter-Glo™ Microbial Cell Viability kit (Promega, Madison, WI, USA). Cell cytotoxicity was quantified using resazurin reduction in human monocytes. Fifty percent cytotoxic concentration (CC50) was calculated as described in Materials and methods. […] Values are given as mean ± SEM.
(§6) The MBC of each peptide was determined as described previously. Bacteria were incubated at 37 °C overnight in Luria-Bertani broth (LB) and diluted to approximately 5 × 10^5 CFU/mL. […]
(§7) Antibacterial activity was assayed by following the cell viability of E. coli and S. aureus, using the BacTiter-Glo™ Microbial Cell Viability kit (Promega), which measures the number of viable bacterial cells, by ATP quantification. ATP, as an indicator of metabolically active cells, is indirectly measured by a coupled luminescence detection assay. […]

[5] = system: P. aeruginosa (M8C1) clinical isolate; assay: as above; assay type: cell-based, Pseudomonas aeruginosa; conditions: ATP luminescence, 4 h at 37 °C, peptide up to 100 µM
Experimental: as §5, §6, §7

primary human monocytes = assay: Cytotoxicity by resazurin reduction; assay type: cell-based; conditions: human monocytes 4 × 10^5 cells/well, peptide up to 100 µM, 72 h at 37 °C
Experimental: as §5

[6] = system: S.aureus (36055) clinical isolate, MRSA; assay: Bacterial viability by ATP quantification (BacTiter-Glo); assay type: cell-based, Staphylococcus aureus; conditions: ATP luminescence, 4 h at 37 °C, peptide up to 100 µM
Experimental: as §5, §6, §7

E. coli cells [7] = assay: Bacterial membrane depolarization, DiSC3(5) dye; assay type: cell-based, Escherichia coli; conditions: DiSC3(5) 0.4 µM, peptide 0.1 to 5 µM, 20 °C, mean ± SEM
S. aureus cells = assay: FACS internalization of FITC-labeled peptides; assay type: cell-based, Staphylococcus aureus; conditions: FITC-labeled peptide, sublethal concentration (0.5 µM), 10 min
Experimental: as §2, §3, §4

S. aureus (ATCC 502A) [8] = assay: Minimum bactericidal concentration (CFU counting); assay type: cell-based, Staphylococcus aureus; conditions: ~5 × 10^5 CFU/mL, peptide 20 to 0.1 µM in Hepes 20 mM, 0.1 M NaCl, pH 7.5, 4 h at 37 °C, then plating, two independent experiments in triplicate
Experimental: as §5
(§8) The MBC of each peptide was determined as described previously. Bacteria were incubated at 37 °C overnight in Luria-Bertani broth (LB) and diluted to approximately 5 × 10^5 CFU/mL. The strains used in this study corresponded to Escherichia coli BL21 from Novagen (Madison, WI, USA), Staphylococcus aureus (ATCC502A) obtained from the Colección Española de Cultivos tipo (CECT), Universidad de Valencia, Spain, Pseudomonas aeruginosa (ATCC® 15692, PAO1), from the American Type Culture Collection (ATCC; Rockville, MD, USA) and P. aeruginosa PA14 were used as reference strains. Three clinical isolates of S. aureus, MRSA (34026, 36055 and 39413) and two clinical isolates of P. aeruginosa (M8C1 and M18C1) were obtained by the kind donation of the Centro de Investigaciones Microbiológicas, CIMIC (Universidad de los Andes, Bogotá, Colombia). […]

E. coli cells [9] = assay: Bacterial cell leakage, SYTOX Green; assay type: cell-based, Escherichia coli; conditions: SYTOX Green 5 µM, 40 min, Triton X-100 = maximum, mean ± SEM
[10] = system: S. aureus genes 16S, parE, MprF; assay: Bacterial gene expression by RT-qPCR; assay type: cell-based, Staphylococcus aureus; conditions: 0.1 µM, 30 min, RT-qPCR normalized to GAPDH
Experimental: as §1
Gene expression of Escherichia coli and Staphylococcus aureus after peptide incubation was determined by Real Time Quantitative Polymerase Chain Reaction (RT-qPCR). The amount of amplified product was measured at each PCR cycle by using fluorescent probes and reading the signal emitted from the dyes while performing the thermal cycling. 1 μL of cDNA (5 ng) was mixed with 2 μL of RNase free water, 5 μL of iTaq Universal Master SYBR green Supermix, 1 μL of each primer of interest (500 nM), for a total volume of 10 μL per reaction. The genes studied in E. coli cells correspond to DnaK, ompC, SbmA and 16S MprF, parE for S. aureus. […] Gene expression level was analyzed using a comparative quantification method ΔCq. […] Each sample was analyzed in triplicate. […]

E. coli cells [11] = assay: Minimum agglutination concentration on bacteria; assay type: cell-based, Escherichia coli; conditions: Tris-HCl, 0.1 M NaCl, pH 7.5, 1 h at 37 °C, visual inspection, 50× stereoscope
Experimental: For determination of minimum agglutination concentration (MAC) values, bacterial cells were grown at 37 °C to mid-exponential phase (OD600 = 0.6), centrifuged at 5000× g for 2 min, and resuspended in Tris-HCl buffer, 0.1 M NaCl, pH 7.5 to give an absorbance of 0.2 at 600 nm. A 100 µL aliquot of the bacterial suspension was incubated with the peptide at various (0.01–10 µM) concentrations at 37 °C for 1 h. Agglutination behavior was observed by visual inspection using a 50× stereoscope microscope and the MAC value was expressed as described.

P. aeruginosa (PA01) = assay: Bacterial viability by ATP quantification (BacTiter-Glo); assay type: cell-based, Pseudomonas aeruginosa; conditions: P. aeruginosa PA01 reference strain; ATP luminescence; 4 h at 37 °C; mean ± SEM, three replicates of two experiments
Experimental: as §5, §6, §7

P. aeruginosa (PA14) = assay: as above; assay type: cell-based, Pseudomonas aeruginosa; conditions: P. aeruginosa PA14 reference strain; ATP luminescence; 4 h at 37 °C; mean ± SEM, three replicates of two experiments
Experimental: as §5, §6, §7

S. aureus (ATCC 502A) [12] = assay: as above; assay type: cell-based, Staphylococcus aureus; conditions: ATP luminescence, 4 h at 37 °C, mean ± SEM, three replicates of two experiments
Experimental: as §5
(§9) Antibacterial activity was assayed by following the cell viability of E. coli and S. aureus, using the BacTiter-Glo™ Microbial Cell Viability kit (Promega), which measures the number of viable bacterial cells, by ATP quantification. ATP, as an indicator of metabolically active cells, is indirectly measured by a coupled luminescence detection assay. The luminescent signal is proportional to the amount of ATP required for the conversion of luciferin into oxyluciferin in the presence of luciferase.

E. coli (BL21) [13] = assay: Minimum bactericidal concentration (CFU counting); assay type: cell-based, Escherichia coli; conditions: ~5 × 10^5 CFU/mL, peptide 20 to 0.1 µM in Hepes 20 mM, 0.1 M NaCl, pH 7.5, 4 h at 37 °C, then plating, two independent experiments in triplicate
Experimental: as §5, §8

[14] = system: S.aureus (39413) clinical isolate, MRSA; assay: Bacterial viability by ATP quantification (BacTiter-Glo); assay type: cell-based, Staphylococcus aureus; conditions: ATP luminescence, 4 h at 37 °C, mean ± SEM, three replicates of two experiments
Experimental: as §5, §6, §7

[15] = system: S.aureus (34026) clinical isolate, MRSA; assay: as above; assay type: cell-based, Staphylococcus aureus; conditions: ATP luminescence, 4 h at 37 °C, mean ± SEM, three replicates of two experiments
Experimental: as §5, §6, §7

E. coli (BL21) [16] = assay: as above; assay type: cell-based, Escherichia coli; conditions: ATP luminescence, 4 h at 37 °C, Hepes 20 mM pH 7.5, 0.1 M NaCl, peptide 100 to 0.1 µM, mean ± SEM, three replicates of two experiments
Experimental: as §5, §9

pET28 plasmid DNA = assay: DNA binding gel retardation assay; conditions: 200 ng pET28 plasmid DNA; peptide-to-DNA weight ratios 2.5:1, 5:1, 10:1; 20 min room temperature; 1.0% agarose gel
[17] = Liposome agglutination by dynamic light scattering; conditions: DOPC/DOPG LUVs 30 µM; DLS; 25 °C; 10 mM Tris/HCl, 100 mM NaCl pH 7.4; peptide 0.1–2 µM

Compound: CC1(C)S[C@@H]2[C@H](NC(=O)[C@H](N)c3ccccc3)C(=O)N2[C@H]1C(=O)O [ampicillin, Ampicillin, reference compound]
- DnaK gene expression [1]: upregulated
- sbmA gene expression [1]: mild reduction

Compound: GLVGTLLGHIGKAILGG-OH [Peptide F2.3S, Frenatin 2.3S]
- Internalization into bacterial cells (FACS) (E. coli cells [2]): internalization within bacterial cells
- Leakage (ED50), Liposomes [3]: 0.1 µM
- DnaK gene expression [1]: upregulation
- ompC gene expression [1]: upregulated
- sbmA gene expression [1]: downregulation
- ED50 [4]: >100 µM
- ED50 [5]: >100 µM
- CC50 (primary human monocytes): >100 µM
- ED50 [6]: >100 µM
- Depolarization (ED50), Bacteria (E. coli cells [7]): 0.1 ± 0.05 µM
- Internalization into bacterial cells (FACS) (S. aureus cells): internalization within bacterial cells
- MBC100 (S. aureus (ATCC 502A) [8]): 1.87 µM
- Leakage (ED50), Bacteria (E. coli cells [9]): 0.1 ± 0.07 µM
- 16S gene expression [10]: did not induce significant changes
- MprF gene expression [10]: did not induce significant changes
- parE gene expression [10]: did not induce significant changes
- Agglutination (MAC), Bacteria (E. coli cells [11]): >5 µM
- ED50 (P. aeruginosa (PA01)): 3.4 ± 0.062 µM
- ED50 (P. aeruginosa (PA14)): 3.1 ± 0.003 µM
- ED50 (S. aureus (ATCC 502A) [12]): 1.1 ± 0.07 µM
- MBC100 (E. coli (BL21) [13]): 0.62 µM
- ED50 [14]: 11.99 ± 0.001 µM
- ED50 [15]: 55.82 ± 0.005 µM
- ED50 (E. coli (BL21) [16]): 0.23 ± 0.01 µM
- DNA-binding activity (gel retardation) (pET28 plasmid DNA): high DNA-binding activity
- Agglutination (MAC), Liposomes [17]: >2 µM
